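1) Cells in 96-well plates. 2) Compound, 48 h, 5 concentrations. 3) Linear interpolation between surrounding doses. 4) Unreached endpoint = highest concentration. GI50: concentration for 50% inhibition of growth. TGI is the concentration that stops growth completely.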
What was measured:
Test in all cases: growth of human tumour cells (NCI), 48 h
SNB-19 CNS = test system: SNB-19 CNS
786-0 renal = test system: 786-0 renal
HT29 colon = test system: HT29 colon
HL-60(TB) leukemia = test system: HL-60(TB) leukemia
MDA-MB-435 = test system: MDA-MB-435
MALME-3M melanoma = test system: MALME-3M melanoma
HS 578T breast = test system: HS 578T breast
RPMI-8226 leukemia = test system: RPMI-8226 leukemia
EKVX NSCLC = test system: EKVX NSCLC
RXF 393 renal = test system: RXF 393 renal
HCT-116 colon = test system: HCT-116 colon
T-47D breast = test system: T-47D breast
A549 NSCLC = test system: A549 NSCLC
SW-620 colon = test system: SW-620 colon
MOLT-4 leukemia = test system: MOLT-4 leukemia
UO-31 renal = test system: UO-31 renal
BT-549 breast = test system: BT-549 breast
TK-10 renal = test system: TK-10 renal
SN12C renal = test system: SN12C renal
OVCAR-8 ovarian = test system: OVCAR-8 ovarian
SK-MEL-2 melanoma = test system: SK-MEL-2 melanoma
SF-539 CNS = test system: SF-539 CNS
DU-145 prostate = test system: DU-145 prostate
SF-268 CNS = test system: SF-268 CNS
NCI-H23 lung = test system: NCI-H23 lung
SK-MEL-5 melanoma = test system: SK-MEL-5 melanoma
NCI-H522 lung = test system: NCI-H522 lung
NCI-H460 lung = test system: NCI-H460 lung
ACHN renal = test system: ACHN renal
K-562 leukemia = test system: K-562 leukemia
HCC-2998 colon = test system: HCC-2998 colon
UACC-62 melanoma = test system: UACC-62 melanoma
LOX IMVI melanoma = test system: LOX IMVI melanoma
HOP-92 NSCLC = test system: HOP-92 NSCLC
KM12 colon = test system: KM12 colon
OVCAR-5 ovarian = test system: OVCAR-5 ovarian
NCI/ADR-RES ovarian = test system: NCI/ADR-RES ovarian
SK-OV-3 ovarian = test system: SK-OV-3 ovarian
OVCAR-4 ovarian = test system: OVCAR-4 ovarian
IGROV1 ovarian = test system: IGROV1 ovarian
MCF7 breast = test system: MCF7 breast
SR leukemia = test system: SR leukemia
OVCAR-3 ovarian = test system: OVCAR-3 ovarian
COLO 205 colon = test system: COLO 205 colon
SK-MEL-28 melanoma = test system: SK-MEL-28 melanoma
SNB-75 CNS = test system: SNB-75 CNS
HOP-62 NSCLC = test system: HOP-62 NSCLC
U251 CNS = test system: U251 CNS
CCRF-CEM leukemia = test system: CCRF-CEM leukemia
MDA-MB-231 breast = test system: MDA-MB-231 breast
SF-295 CNS = test system: SF-295 CNS
CAKI-1 renal = test system: CAKI-1 renal
M14 melanoma = test system: M14 melanoma
NCI-H226 lung = test system: NCI-H226 lung

Cn1c2ccc(Br)cc2c2c3c(c4c5ccccc5[nH]c4c21)C(=O)N(O)C3=O
GI50 (SNB-19 CNS): 0.0777 µM
TGI (SNB-19 CNS): 0.696 µM
GI50 (786-0 renal): 0.174 µM
TGI (786-0 renal): 0.421 µM
GI50 (HT29 colon): 0.23 µM
TGI (HT29 colon): 0.658 µM
GI50 (HL-60(TB) leukemia): 0.301 µM
TGI (HL-60(TB) leukemia): 1.85 µM
GI50 (MDA-MB-435): 0.18 µM
TGI (MDA-MB-435): 0.498 µM
GI50 (MALME-3M melanoma): 0.186 µM
TGI (MALME-3M melanoma): 0.386 µM
GI50 (HS 578T breast): 0.291 µM
TGI (HS 578T breast): 1.04 µM
GI50 (RPMI-8226 leukemia): 0.151 µM
TGI (RPMI-8226 leukemia): 0.672 µM
GI50 (EKVX NSCLC): 0.232 µM
TGI (EKVX NSCLC): 0.896 µM
GI50 (RXF 393 renal): 0.158 µM
TGI (RXF 393 renal): 0.329 µM
GI50 (HCT-116 colon): 0.112 µM
TGI (HCT-116 colon): 0.414 µM
GI50 (T-47D breast): 0.109 µM
TGI (T-47D breast): 0.737 µM
GI50 (A549 NSCLC): 0.63 µM
TGI (A549 NSCLC): 2.49 µM
GI50 (SW-620 colon): 0.0787 µM
TGI (SW-620 colon): 0.394 µM
GI50 (MOLT-4 leukemia): 0.046 µM
TGI (MOLT-4 leukemia): 0.312 µM
GI50 (UO-31 renal): 0.0917 µM
TGI (UO-31 renal): 0.308 µM
GI50 (BT-549 breast): 0.149 µM
TGI (BT-549 breast): 0.45 µM
GI50 (TK-10 renal): 0.655 µM
TGI (TK-10 renal): 1.42 µM
GI50 (SN12C renal): 0.0814 µM
TGI (SN12C renal): 0.445 µM
GI50 (OVCAR-8 ovarian): 0.149 µM
TGI (OVCAR-8 ovarian): 0.683 µM
GI50 (SK-MEL-2 melanoma): 0.226 µM
TGI (SK-MEL-2 melanoma): 0.469 µM
GI50 (SF-539 CNS): 0.073 µM
TGI (SF-539 CNS): 0.217 µM
GI50 (DU-145 prostate): 0.0871 µM
TGI (DU-145 prostate): 0.57 µM
GI50 (SF-268 CNS): 0.0763 µM
TGI (SF-268 CNS): 0.72 µM
GI50 (NCI-H23 lung): 0.0872 µM
TGI (NCI-H23 lung): 0.398 µM
GI50 (SK-MEL-5 melanoma): 0.128 µM
TGI (SK-MEL-5 melanoma): 0.266 µM
GI50 (NCI-H522 lung): 0.0506 µM
TGI (NCI-H522 lung): 0.286 µM
GI50 (NCI-H460 lung): 0.04 µM
TGI (NCI-H460 lung): 0.182 µM
GI50 (ACHN renal): 0.0448 µM
TGI (ACHN renal): 0.244 µM
GI50 (K-562 leukemia): 0.168 µM
GI50 (HCC-2998 colon): 0.473 µM
TGI (HCC-2998 colon): 1.57 µM
GI50 (UACC-62 melanoma): 0.183 µM
TGI (UACC-62 melanoma): 0.529 µM
GI50 (LOX IMVI melanoma): 0.0537 µM
TGI (LOX IMVI melanoma): 0.193 µM
GI50 (HOP-92 NSCLC): 0.0893 µM
TGI (HOP-92 NSCLC): 0.451 µM
GI50 (KM12 colon): 0.237 µM
TGI (KM12 colon): 0.902 µM
GI50 (OVCAR-5 ovarian): 1.33 µM
TGI (OVCAR-5 ovarian): 3.73 µM
GI50 (NCI/ADR-RES ovarian): 0.357 µM
TGI (NCI/ADR-RES ovarian): > 100 µM
GI50 (SK-OV-3 ovarian): 0.265 µM
TGI (SK-OV-3 ovarian): 0.773 µM
GI50 (OVCAR-4 ovarian): 0.244 µM
TGI (OVCAR-4 ovarian): 0.705 µM
GI50 (IGROV1 ovarian): 0.262 µM
TGI (IGROV1 ovarian): 1.07 µM
GI50 (MCF7 breast): 0.04 µM
TGI (MCF7 breast): 0.309 µM
GI50 (SR leukemia): 0.0228 µM
TGI (SR leukemia): 2.64 µM
GI50 (OVCAR-3 ovarian): 0.191 µM
TGI (OVCAR-3 ovarian): 0.452 µM
GI50 (COLO 205 colon): 0.231 µM
TGI (COLO 205 colon): 0.73 µM
GI50 (SK-MEL-28 melanoma): 0.212 µM
TGI (SK-MEL-28 melanoma): 0.498 µM
GI50 (SNB-75 CNS): 0.164 µM
TGI (SNB-75 CNS): 0.425 µM
GI50 (HOP-62 NSCLC): 0.131 µM
TGI (HOP-62 NSCLC): 0.653 µM
GI50 (U251 CNS): 0.0865 µM
TGI (U251 CNS): 0.266 µM
GI50 (CCRF-CEM leukemia): 0.0412 µM
TGI (CCRF-CEM leukemia): 0.956 µM
GI50 (MDA-MB-231 breast): 0.21 µM
TGI (MDA-MB-231 breast): 0.607 µM
GI50 (SF-295 CNS): 0.223 µM
TGI (SF-295 CNS): 0.633 µM
GI50 (CAKI-1 renal): 0.22 µM
TGI (CAKI-1 renal): 0.885 µM
GI50 (M14 melanoma): 0.0877 µM
TGI (M14 melanoma): 0.307 µM
GI50 (NCI-H226 lung): 1.06 µM
TGI (NCI-H226 lung): 2.92 µM

Reference: PubChem BioAssay (NCI)
